Series [1] concerns the target T1, human cannabis CB1 receptor (Homo sapiens, UniProt P21554).
T1 construct: expressed in transfected cells; host or cells: human embryonic kidney (HEK) cells, transient, Semliki Forest Virus system
In words: Affinity for cannabinoid CB1 receptors, [3H]-CP-55,940 radioligand binding on HEK cell membranes. On the procedure: The affinity of the compounds of the invention for cannabinoid CB1 receptors was determined using membrane preparations of human embryonic kidney (HEK) cells in which the human cannabis CB1 receptor is transiently transfected using the Semliki Forest Virus system in conjunction with [3H]-CP-55,940 as radioligand. After incubation of a freshly prepared cell membrane preparation with the [3H]-ligand, with or without addition of compounds of the invention, separation of bound and free ligand was performed by filtration over glassfiber filters. Radioactivity on the filter was measured by liquid scintillation counting.

The conditions of series [2]: doses of 10 and 20 mg daily; cited from earlier work.

SMILES strings stand for the structures. pIC50: −log10 of the molar value. Like-named read-outs stand apart in the source and are kept apart here.

Results on four compounds are retold here after US7229999B2, “Pyridine-3-carboxamide derivatives as CB1 inverse agonists” (Hoffmann-La Roche Inc., priority 2005, dated 2007).

T1 sequence (P21554 whole entry): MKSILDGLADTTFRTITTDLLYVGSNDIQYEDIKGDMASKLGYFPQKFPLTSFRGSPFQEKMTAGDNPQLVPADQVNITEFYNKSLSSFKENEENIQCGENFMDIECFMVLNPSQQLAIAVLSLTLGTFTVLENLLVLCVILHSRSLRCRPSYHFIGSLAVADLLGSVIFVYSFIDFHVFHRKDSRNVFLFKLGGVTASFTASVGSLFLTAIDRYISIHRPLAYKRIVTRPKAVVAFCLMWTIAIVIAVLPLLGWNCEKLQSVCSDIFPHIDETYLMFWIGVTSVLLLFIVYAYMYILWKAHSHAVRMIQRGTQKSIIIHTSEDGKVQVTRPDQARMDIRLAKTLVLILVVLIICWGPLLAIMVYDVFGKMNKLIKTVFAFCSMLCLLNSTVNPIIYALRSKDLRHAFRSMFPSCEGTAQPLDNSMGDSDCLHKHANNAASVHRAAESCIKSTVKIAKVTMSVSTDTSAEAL

For the compound `CCCCOc1ncc(C(=O)N[C@@H]2CCCC[C@H]2O)cc1-c1cc(C(F)(F)F)ccc1F` [Example 2, 6-Butoxy-5-(2-fluoro-5-trifluoromethyl-phenyl)-N-((1R,2R)-2-hydroxy-cyclohexyl)-nicotinamide], the melting point (in general, the temperature, or range, at which the solid turns liquid) is 172 to 178 °C. In addition, the pIC50 (commonly the negative decadic logarithm of the IC50, by convention in mol/L) in series [1] (affinity for the CB1 receptor, read-out: IC50) is 6.73. In series [1], `CCCCOc1ncc(C(=O)N[C@@H]2CCCC[C@H]2O)cc1-c1ccc(Cl)cc1` [Example 3, 6-Butoxy-5-(4-chloro-phenyl)-N-((1R,2R)-2-hydroxy-cyclohexyl)-nicotinamide] showed a pIC50 of 7.41. Same read-out and setting: the result for `O=C(N[C@@H]1CCCC[C@H]1O)c1cnc(OCC2CC2)c(-c2cc(C(F)(F)F)ccc2F)c1` [Example 7, 6-Cyclopropylmethoxy-5-(2-fluoro-5-trifluoromethyl-phenyl)-N-((1R,2R)-2-hydroxy-cyclohexyl)-nicotinamide] reads 6.99. On to `Cc1c(C(=O)NN2CCCCC2)nn(-c2ccc(Cl)cc2Cl)c1-c1ccc(Cl)cc1` [SR 141716], for which the “body weight compared to placebo” value in series [2] is listed as “significantly reduced body weight”.
